Some targets named below: Cytochrome P450 3A4 (Homo sapiens, UniProt P08684); Estrogen receptor beta (Homo sapiens, UniProt Q92731); Cytochrome P450 2C9 (Homo sapiens, UniProt P11712).
A short description of series [1]: inhibitors of intracellular T. cruzi replication, confirmation, NIH3T3 host cells, beta-gal luminescence (AID 2044).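 Further: intracellular parasites grown in NIH/3T3 mouse fibroblasts as host cells; luminescent beta-galactosidase reporter signal from transgenic T. cruzi replicating inside host cells; inhibitors lower the luminescence signal.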 Format: functional, cell-based.
The target of series [2] is DNA dC->dU-editing enzyme APOBEC-3G (Homo sapiens, UniProt Q9HC16). In words: Dose Response confirmation of small molecule APOBEC3G DNA Deaminase Inhibitors via a fluorescence-based single-stranded DNA deaminase assay. [Related pubchem assays (depositor defined):AID493012, AID493028]. Format: functional.
Series [3] is described as follows: cytotoxicity toward NIH3T3 fibroblasts, dose response, counter-screen, cell-based, ATP luminescence, mouse fibroblasts (AID 2010).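 Further: cells exposed to compound for about 90 hours before reading.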 Format: functional.
Series [4] addresses T1, Fatty acid synthase (Homo sapiens, UniProt P49327). The series is described as follows: FAS thioesterase domain inhibitors, dose response, biochemical, kinetic fluorescence intensity (AID 624326).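 Further: rate of fluorescence rise from hydrolysis of a fluorogenic O-methyl fluorescein ester substrate.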 Format: functional.
Series [5] addresses T1, Fatty acid synthase. In words: FAS thioesterase domain inhibitors, dose response, biochemical, endpoint fluorescence intensity, uHTS hits (AID 624327).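 Further: fluorescence from hydrolysis of an O-methyl fluorescein acyl ester substrate by the enzyme.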 Format: functional.
The target of series [6] is Eukaryotic translation initiation factor 4E (Mus musculus, UniProt P63073). The series is described as follows: eIF4E–eIF4G protein interaction inhibitors, dose response, biochemical, TR-FRET (AID 855).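 Further: potency for disrupting eIF4E binding to eIF4GI seen as loss of FRET.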 Format: functional. On the technique in general: In TR-FRET formats the signal depends on donor and acceptor labels being close together.
Another series can be described thus: cells. In kind it is functional.
The test system of a further series is H9c2. In words: cells. In kind it is functional, cell-based. The following applies: Rattus norvegicus, H9c2, Myocardium.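 Further: confirmatory concentration-response retest of ultra-high-throughput screening hits for modulation of myocardial damage; cell death induced by hydrogen peroxide oxidative stress; compound pretreatment for 60 min then peroxide exposure for 2 h; potency is for protecting the cells against peroxide damage rather than for killing them.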
Series [7] is described as follows: growth suppression of PTEN-null colon cells, dose response, cell-based, HCT116 PTEN knockout (AID 1047).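 Further: HCT116 colon tumor cells with PTEN knocked out; cells exposed to compound for 60 hours before readout; potency for loss of cell viability measured by luminescence.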 In kind it is functional.
The nature of series [8]: growth suppression of beta-catenin-knockout colon cells, dose response, cell-based, HCT116, human colon tumor (AID 1045).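 Further: HCT116 colon tumor cells with beta catenin knocked out; cells exposed to compound for 60 hours.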 In kind it is functional.
Series [9] addresses Luciferin 4-monooxygenase (Photinus pyralis, UniProt P08659). The series is described as follows: firefly luciferase enzyme inhibitors, dose response, biochemical, luminescence (AID 1891).
Series [10] in a line: Luminescence Cell-Based Dose Confirmation HTS to Identify Inhibitors of Platelet Dense Granule Release. [Related pubchem assays: 1663 (Primary HTS), 1678 (Summary of Project)]. In kind it is functional.
Another series addresses Cytochrome P450 2C19 (Homo sapiens, UniProt P33261). In words: Cytochrome panel assay with activity outcomes. Panel member name: p450-cyp2c19 Compounds with AC50 equal or less than 10 uM are considered active. Format: functional. The settings on record: read-out: AC50.
For another series, the target named is T2, Cytochrome P450 1A2 (Homo sapiens, UniProt P05177).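 Further: PubChem cytochrome P450 panel assay, CYP1A2 panel member.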
T2 sequence (P05177 whole entry): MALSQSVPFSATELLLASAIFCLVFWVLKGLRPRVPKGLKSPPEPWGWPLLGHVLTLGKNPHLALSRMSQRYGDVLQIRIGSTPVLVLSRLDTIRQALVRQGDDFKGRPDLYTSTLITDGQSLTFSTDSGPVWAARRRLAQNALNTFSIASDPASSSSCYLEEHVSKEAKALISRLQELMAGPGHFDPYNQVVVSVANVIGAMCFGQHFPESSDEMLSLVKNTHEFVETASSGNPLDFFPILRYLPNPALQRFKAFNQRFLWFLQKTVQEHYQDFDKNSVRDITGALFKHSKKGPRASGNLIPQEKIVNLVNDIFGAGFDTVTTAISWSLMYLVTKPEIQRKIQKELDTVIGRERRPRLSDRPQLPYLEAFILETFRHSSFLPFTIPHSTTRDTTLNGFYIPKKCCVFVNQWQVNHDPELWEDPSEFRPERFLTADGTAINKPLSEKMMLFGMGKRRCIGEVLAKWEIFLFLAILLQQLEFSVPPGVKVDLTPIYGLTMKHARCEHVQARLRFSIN

In the next series the target is Paired box protein Pax-8 (Homo sapiens, UniProt Q06710). The series is described as follows: inhibitors of PAX8-driven TPO luciferase reporter, dose response, RMG-I cells, cherry-pick (AID 687027).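 Further: luciferase reporter driven by Pax8 target thyroperoxidase promoter measured by SteadyGlo luminescence.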 In kind it is functional, cell-based. In general terms: In a reporter assay the amount or activity of a reporter protein is the signal.
Series [11] can be described thus: cytotoxicity in OVCAR8 ovarian cancer cells, dose response, PAX8 project, cell-based, plate reader, dry powder samples (AID 743197). Format: functional. The following applies: OVCAR-8.

The structures appear in SMILES notation. Activity calls are given as the source filed them.

Sequence of Estrogen receptor beta (Q92731 whole entry): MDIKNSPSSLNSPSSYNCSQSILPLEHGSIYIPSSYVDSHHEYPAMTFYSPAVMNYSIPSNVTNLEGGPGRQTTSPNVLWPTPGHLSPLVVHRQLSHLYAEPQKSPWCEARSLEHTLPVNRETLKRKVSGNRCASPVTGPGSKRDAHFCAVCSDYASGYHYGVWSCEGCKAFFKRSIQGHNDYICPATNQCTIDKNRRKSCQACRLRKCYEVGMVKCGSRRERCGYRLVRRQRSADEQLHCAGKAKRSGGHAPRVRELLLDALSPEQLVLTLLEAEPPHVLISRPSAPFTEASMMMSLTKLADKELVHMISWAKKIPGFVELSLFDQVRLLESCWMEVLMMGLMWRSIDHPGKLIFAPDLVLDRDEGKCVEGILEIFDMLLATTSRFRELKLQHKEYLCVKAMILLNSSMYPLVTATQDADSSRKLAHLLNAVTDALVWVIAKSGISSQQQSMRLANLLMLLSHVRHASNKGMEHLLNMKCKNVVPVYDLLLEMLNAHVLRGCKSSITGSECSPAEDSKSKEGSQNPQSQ
Sequence of Cytochrome P450 3A4 (P08684 whole entry): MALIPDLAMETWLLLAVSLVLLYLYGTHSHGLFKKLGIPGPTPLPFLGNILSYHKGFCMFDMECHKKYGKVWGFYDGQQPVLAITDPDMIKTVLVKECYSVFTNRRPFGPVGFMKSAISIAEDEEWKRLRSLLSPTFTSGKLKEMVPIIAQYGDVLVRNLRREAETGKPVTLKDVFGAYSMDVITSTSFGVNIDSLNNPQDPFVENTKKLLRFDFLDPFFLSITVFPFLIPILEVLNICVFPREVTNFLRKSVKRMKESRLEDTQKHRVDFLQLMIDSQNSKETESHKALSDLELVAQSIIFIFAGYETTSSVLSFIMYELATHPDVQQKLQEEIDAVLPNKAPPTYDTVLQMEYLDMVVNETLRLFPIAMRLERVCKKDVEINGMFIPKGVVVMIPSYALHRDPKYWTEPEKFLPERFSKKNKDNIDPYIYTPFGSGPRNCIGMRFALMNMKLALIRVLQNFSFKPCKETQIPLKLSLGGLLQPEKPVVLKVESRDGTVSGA
T1 sequence (P49327 whole entry, the tested form may be a part): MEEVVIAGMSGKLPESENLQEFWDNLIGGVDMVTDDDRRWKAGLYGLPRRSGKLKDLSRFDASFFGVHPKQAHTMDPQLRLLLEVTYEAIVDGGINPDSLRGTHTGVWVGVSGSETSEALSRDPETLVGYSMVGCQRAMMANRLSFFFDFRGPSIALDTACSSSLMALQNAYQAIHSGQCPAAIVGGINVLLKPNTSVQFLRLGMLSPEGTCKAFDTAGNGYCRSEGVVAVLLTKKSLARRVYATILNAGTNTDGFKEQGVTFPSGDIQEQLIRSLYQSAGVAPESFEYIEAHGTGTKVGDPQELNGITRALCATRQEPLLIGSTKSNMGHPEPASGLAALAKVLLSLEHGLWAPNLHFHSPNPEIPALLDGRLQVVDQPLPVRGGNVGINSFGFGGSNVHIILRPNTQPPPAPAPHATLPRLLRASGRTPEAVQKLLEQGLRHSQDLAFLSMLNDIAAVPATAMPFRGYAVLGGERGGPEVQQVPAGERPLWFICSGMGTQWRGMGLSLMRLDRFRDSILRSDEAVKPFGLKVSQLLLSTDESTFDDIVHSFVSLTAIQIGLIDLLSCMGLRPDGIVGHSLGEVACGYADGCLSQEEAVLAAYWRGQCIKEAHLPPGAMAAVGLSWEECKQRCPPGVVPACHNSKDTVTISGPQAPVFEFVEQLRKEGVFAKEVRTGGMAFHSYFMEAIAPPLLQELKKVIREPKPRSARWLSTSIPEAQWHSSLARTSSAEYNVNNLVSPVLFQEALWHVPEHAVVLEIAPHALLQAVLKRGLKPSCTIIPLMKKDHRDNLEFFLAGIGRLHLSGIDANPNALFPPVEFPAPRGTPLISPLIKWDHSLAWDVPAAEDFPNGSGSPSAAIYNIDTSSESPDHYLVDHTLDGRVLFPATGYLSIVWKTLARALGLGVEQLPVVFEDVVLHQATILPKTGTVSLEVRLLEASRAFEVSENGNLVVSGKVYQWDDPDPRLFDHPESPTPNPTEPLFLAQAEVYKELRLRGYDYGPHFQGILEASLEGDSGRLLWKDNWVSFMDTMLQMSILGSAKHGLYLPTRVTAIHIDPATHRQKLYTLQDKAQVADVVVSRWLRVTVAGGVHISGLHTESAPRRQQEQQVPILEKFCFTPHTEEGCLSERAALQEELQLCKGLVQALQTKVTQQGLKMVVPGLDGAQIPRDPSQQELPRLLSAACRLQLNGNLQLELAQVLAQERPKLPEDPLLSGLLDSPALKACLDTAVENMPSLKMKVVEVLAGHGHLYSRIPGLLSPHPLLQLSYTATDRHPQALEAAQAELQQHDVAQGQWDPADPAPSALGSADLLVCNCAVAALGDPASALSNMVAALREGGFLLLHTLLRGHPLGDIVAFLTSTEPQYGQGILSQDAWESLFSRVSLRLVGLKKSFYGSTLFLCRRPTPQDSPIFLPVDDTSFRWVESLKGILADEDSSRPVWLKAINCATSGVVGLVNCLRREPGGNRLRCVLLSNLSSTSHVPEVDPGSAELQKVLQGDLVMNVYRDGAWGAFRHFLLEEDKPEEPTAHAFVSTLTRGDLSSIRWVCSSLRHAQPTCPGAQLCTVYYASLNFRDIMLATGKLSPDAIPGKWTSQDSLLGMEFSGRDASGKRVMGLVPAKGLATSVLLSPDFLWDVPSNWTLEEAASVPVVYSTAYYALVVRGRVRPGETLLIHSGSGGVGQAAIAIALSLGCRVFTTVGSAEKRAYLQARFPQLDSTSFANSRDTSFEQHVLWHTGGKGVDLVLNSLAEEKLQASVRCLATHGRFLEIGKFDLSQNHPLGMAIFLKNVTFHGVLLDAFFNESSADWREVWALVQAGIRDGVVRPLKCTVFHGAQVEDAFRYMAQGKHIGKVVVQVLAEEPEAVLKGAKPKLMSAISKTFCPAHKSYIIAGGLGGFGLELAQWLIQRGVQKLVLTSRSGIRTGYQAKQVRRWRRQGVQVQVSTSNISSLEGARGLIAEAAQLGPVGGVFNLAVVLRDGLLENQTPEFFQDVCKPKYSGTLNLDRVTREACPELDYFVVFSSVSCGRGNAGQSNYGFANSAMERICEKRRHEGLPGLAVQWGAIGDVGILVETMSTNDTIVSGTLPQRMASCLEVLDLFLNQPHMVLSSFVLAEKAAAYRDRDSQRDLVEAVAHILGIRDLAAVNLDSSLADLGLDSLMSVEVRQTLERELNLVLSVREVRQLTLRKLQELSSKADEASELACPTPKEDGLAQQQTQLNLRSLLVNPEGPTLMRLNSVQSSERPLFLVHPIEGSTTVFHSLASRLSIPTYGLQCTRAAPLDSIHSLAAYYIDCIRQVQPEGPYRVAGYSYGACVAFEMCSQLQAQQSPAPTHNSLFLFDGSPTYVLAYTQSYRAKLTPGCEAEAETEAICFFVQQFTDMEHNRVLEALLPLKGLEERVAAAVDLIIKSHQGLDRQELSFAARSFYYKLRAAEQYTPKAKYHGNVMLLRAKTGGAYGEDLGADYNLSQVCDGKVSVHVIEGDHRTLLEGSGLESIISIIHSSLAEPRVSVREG
Sequence of Paired box protein Pax-8 (Q06710 whole entry): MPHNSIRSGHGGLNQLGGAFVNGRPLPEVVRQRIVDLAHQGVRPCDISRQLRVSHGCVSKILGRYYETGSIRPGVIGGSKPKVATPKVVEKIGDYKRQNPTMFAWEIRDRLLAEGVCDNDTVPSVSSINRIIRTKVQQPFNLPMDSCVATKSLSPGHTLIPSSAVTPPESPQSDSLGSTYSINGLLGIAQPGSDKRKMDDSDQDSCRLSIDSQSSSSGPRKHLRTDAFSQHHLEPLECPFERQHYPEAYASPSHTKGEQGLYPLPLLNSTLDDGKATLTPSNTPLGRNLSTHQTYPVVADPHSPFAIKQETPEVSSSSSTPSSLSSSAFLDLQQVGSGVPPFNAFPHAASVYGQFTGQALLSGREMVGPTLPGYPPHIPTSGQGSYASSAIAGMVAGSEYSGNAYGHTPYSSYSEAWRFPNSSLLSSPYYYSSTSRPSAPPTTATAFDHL
Sequence of Eukaryotic translation initiation factor 4E (P63073 whole entry): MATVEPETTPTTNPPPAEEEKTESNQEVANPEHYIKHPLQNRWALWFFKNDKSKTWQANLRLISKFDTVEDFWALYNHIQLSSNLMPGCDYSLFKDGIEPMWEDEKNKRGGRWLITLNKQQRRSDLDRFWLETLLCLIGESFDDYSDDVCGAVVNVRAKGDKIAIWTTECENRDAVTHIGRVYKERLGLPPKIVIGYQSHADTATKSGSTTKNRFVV
Sequence of Cytochrome P450 2C19 (P33261 whole entry): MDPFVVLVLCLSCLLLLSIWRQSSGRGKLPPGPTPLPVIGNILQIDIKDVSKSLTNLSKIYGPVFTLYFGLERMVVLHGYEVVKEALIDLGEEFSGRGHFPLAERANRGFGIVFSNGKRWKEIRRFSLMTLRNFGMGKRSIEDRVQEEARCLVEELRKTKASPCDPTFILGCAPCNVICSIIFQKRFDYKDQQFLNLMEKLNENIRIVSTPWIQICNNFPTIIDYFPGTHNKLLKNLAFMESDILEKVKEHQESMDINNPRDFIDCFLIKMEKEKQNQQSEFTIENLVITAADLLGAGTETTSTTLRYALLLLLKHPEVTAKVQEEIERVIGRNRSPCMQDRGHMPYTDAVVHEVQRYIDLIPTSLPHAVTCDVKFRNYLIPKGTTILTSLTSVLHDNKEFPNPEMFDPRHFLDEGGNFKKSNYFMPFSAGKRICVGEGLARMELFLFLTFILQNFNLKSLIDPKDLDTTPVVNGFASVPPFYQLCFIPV

The term AC50 denotes the concentration at which the activity in the assay is half-maximal. On to `O=C(c1ccco1)N1CCC2(CCN(Cc3ccccc3)CC2)CC1`, for which the AC50 result at Cytochrome P450 3A4 was “inconclusive”. The term IC50 denotes the concentration that inhibits the measured activity by half. As for `CCOc1ccccc1C(=O)N1CCN=C1SC`, at Estrogen receptor beta, the IC50 is > 50 µM (not active). As usually defined, the EC50 is the concentration needed to bring the measured effect to its halfway point. Take `COc1ccccc1NS(=O)(=O)c1cc(NC(=O)C2CCC2)ccc1N1CCCCC1`: the EC50 was 2.44 µM (active) in series [1] and > 30 µM (not active) in [3]. Moreover, in series [2], the IC50 was 46.8 µM (active). On to `O=C(O)CCCNc1c(C(=O)Nc2ccc(Cl)cc2)cc([N+](=O)[O-])cc1[N+](=O)[O-]`, for which the values for the IC50 at Fatty acid synthase [4] and on Fatty acid synthase [5] were 4.79 µM (active) and 5.31 µM (active), respectively. Consider `C=CCn1c(-c2cc(OC)c(OC)c(OC)c2)n[nH]c1=S`, for which, in series [6], the IC50 was > 64 µM (inactive). Take `O=C(COC(=O)c1ccc([N+](=O)[O-])s1)Nc1ccc(Cl)cn1`: the results for the IC50 in “cells” and in the series with H9c2 were 8.49 µM (active) and 22.2 µM (active), respectively. Regarding `CCOC(=O)CNC(=O)C(Cc1ccccc1)NS(=O)(=O)c1ccc2c(c1)CCC(=O)N2` (configuration not stated), the IC50 on Estrogen receptor beta is listed as > 50 µM (not active). In the case of `COCCNC(=O)CCCn1c(=O)c2ccccc2n(Cc2cccc([N+](=O)[O-])c2)c1=O`, the results for the IC50 at Fatty acid synthase [4] and on Fatty acid synthase [5] were 15.8 µM (active) and 11.6 µM (active), respectively. For `CCN1C2=C(C(=O)CCC2)C(c2ccc(O)c(Br)c2)C2=C1CCCC2=O`, on Estrogen receptor beta, the IC50 is reported as > 50 µM (not active). Turning to `O=C(Nc1nc(-c2cc(Cl)sc2Cl)cs1)c1ccc(Br)s1`, the EC50 was 17.1 µM (active) in series [7] and 20.2 µM (active) in series [8]. On to `O=C(NCCCCc1ccccc1)C1CC(c2ccc([N+](=O)[O-])cc2)=NO1` (configuration not stated), for which the results for the 50% inhibitory concentration (IC50) on Fatty acid synthase [4] and at Fatty acid synthase [5] were 14.1 µM (active) and 13.6 µM (active), respectively.

Regarding `O=C(c1ccco1)N1CCC2(CCN(Cc3nccs3)CC2)CC1`, the half-maximal activity concentration (AC50) result on Cytochrome P450 3A4 was “inconclusive”. As for `COC(=O)C1(C(F)(F)F)N=C2Sc3ccccc3N2C(N2CCOCC2)=N1` (configuration not stated), the EC50 in series [9] is > 112 µM (not active); in [7], 23.9 µM (active); in series [10], > 112 µM (not active); in series [8] it was 21.7 µM (active). Turning to `Cc1ccc(C(=O)ON=C2CCN(S(=O)(=O)c3ccccc3)CC2)cc1`, the results for the AC50 entry at Cytochrome P450 3A4, at Cytochrome P450 2C19 and at Cytochrome P450 1A2 were “inconclusive”, 5.01 µM (inconclusive) and 28.2 µM (inconclusive), respectively. For the compound `Cc1oc(-c2ccc(Cl)cc2)nc1CN1CCC(C(=O)N2CCc3ccccc3C2)CC1`, the EC50 was 16.5 µM (active) in [7] and 14.7 µM (active) in series [8]. Turning to `CC(C)(C)c1ccc(C(=O)NC(Cc2ccccc2)C(=O)O)cc1` (configuration not stated), the values for the AC50 result on Cytochrome P450 3A4, on Cytochrome P450 2C19 and on Cytochrome P450 2C9 were “inconclusive”, 22.4 µM (inconclusive) and 25.1 µM (inconclusive), respectively. On to `C[C@H](CO)N1C[C@H](C)[C@@H](CN(C)C(=O)NC2CCCCC2)Oc2c(NC(=O)Nc3ccc4c(c3)OCO4)cccc2C1=O`, for which the IC50 on Fatty acid synthase [4] was 4.32 µM (active); on Fatty acid synthase [5], 1.66 µM (active). For the compound `CCOc1ccc(Cl)cc1CNCCNCC(C)O.Cl` (configuration not stated), at Cytochrome P450 3A4, the AC50 entry is reported as “inconclusive”. On to `O=C(Nc1cccc(F)c1)N1CCCCN2[C@@H](CO)[C@@H](c3ccc(-c4ccncc4)cc3)[C@@H]2C1`, for which the AC50 at Paired box protein Pax-8 was 32.2 µM (active); in [11], > 70 µM (inactive). As to `CCCC#Cc1ccc([C@H]2[C@H]3CN(S(=O)(=O)Cc4ccccc4)CCCCN3[C@H]2CO)cc1`, the results for the AC50 (at Paired box protein Pax-8; in [11]) were 10.9 µM (active) and 60.2 µM (active), respectively.

As for `CN1c2ccc(-c3ccccc3)cc2[C@@H]2[C@@H](CCN2C(=O)NC2CCCCC2)[C@@H]1CO`, the AC50 on Paired box protein Pax-8 is 11.1 µM (active); in series [11] it was 49.6 µM (active). For `O=S1(=O)CC/C(=N/Nc2ccc(C(F)(F)F)cn2)c2cc(F)ccc21`, the IC50 in series [6] was 50 µM (inactive). As to `O=C(O)CC(O)C(=O)O` (configuration not stated) [MALIC ACID], at Cytochrome P450 3A4, the AC50 result is recorded as “inconclusive”.

Values taken from ChEMBL document CHEMBL1201862, “PubChem BioAssay data set” (2004).
